# Data taken from ChEMBL document CHEMBL6083263, “The Discovery of MORF-627, a Highly Selective Conformationally-Biased Zwitterionic Integrin αvβ6 Inhibitor for Fibrosis” (J Med Chem, 2024).
# Assays:
# [1] = target: T1, Integrin alpha-V/beta-6 (Homo sapiens, UniProt P06756+P18564); test: Displacement of fluorescein labeled GRGDLGRL from human Integrin alphaVbeta6 preincubated for 15 mins followed by fluorescein labeled GRGDLGRL addition and measured after 1 hr by fluorescence polarization assay; format: protein-complex assay
# [2] = target: Integrin alpha-V/beta-1 (Homo sapiens, UniProt P05556+P06756); test: Displacement of fluorescein labeled ACRGDGWC from human Integrin alphaVbeta1 preincubated for 15 mins followed by fluorescein labeled ACRGDGWC addition and measured after 1 hr by fluorescence polarization assay; format: protein-complex assay
# [3] = target: Integrin alpha-V/beta-8 (Homo sapiens, UniProt P06756+P26012); test: Displacement of fluorescein labeled GRGDLGRL from human Integrin alphaVbeta8 preincubated for 15 mins followed by fluorescein labeled GRGDLGRL addition and measured after 1 hr by fluorescence polarization assay; format: protein-complex assay
# [4] = Octanol/water partition coefficient, logD of the compound; format: physicochemical
# [5] = target: T1, Integrin alpha-V/beta-6; test: Binding affinity to human Integrin alphaVbeta6 overexpressed in HEK293 cells incubated for 15 mins in presence of human serum by flow cytometry assay; format: cell-based
# [6] = Clearance in Sprague-Dawley rat at 1 mg/kg, iv measured upto 24 hrs by LC/MS-MS analysis; format: ADME, organism-based; settings: in vivo
# [7] = Volume of distribution at steady state in Sprague-Dawley rat at 1 mg/kg, iv measured upto 24 hrs by LC/MS-MS analysis; format: ADME, organism-based; settings: in vivo, read-out: Vdss
# [8] = Half-life in Sprague-Dawley rat at 1 mg/kg, iv measured upto 24 hrs by LC/MS-MS analysis; format: ADME, organism-based; settings: in vivo
# [9] = Oral bioavailability in Sprague-Dawley rat at 10 mg/kg measured upto 24 hrs by LC/MS-MS analysis; format: ADME, organism-based; settings: in vivo
# [10] = organism: Homo sapiens; test: Selectivity ratio of IC50 for displacement of fluorescein labeled ACRGDGWC from human Integrin alphaVbeta1 to IC50 for displacement of fluorescein labeled GRGDLGRL from human Integrin alphaVbeta6
# [11] = organism: Homo sapiens; test: Selectivity ratio of IC50 for displacement of fluorescein labeled GRGDLGRL from human Integrin alphaVbeta8 to IC50 for displacement of fluorescein labeled GRGDLGRL from human Integrin alphaVbeta6
# T1 sequence (P06756 31-889 limits assumed): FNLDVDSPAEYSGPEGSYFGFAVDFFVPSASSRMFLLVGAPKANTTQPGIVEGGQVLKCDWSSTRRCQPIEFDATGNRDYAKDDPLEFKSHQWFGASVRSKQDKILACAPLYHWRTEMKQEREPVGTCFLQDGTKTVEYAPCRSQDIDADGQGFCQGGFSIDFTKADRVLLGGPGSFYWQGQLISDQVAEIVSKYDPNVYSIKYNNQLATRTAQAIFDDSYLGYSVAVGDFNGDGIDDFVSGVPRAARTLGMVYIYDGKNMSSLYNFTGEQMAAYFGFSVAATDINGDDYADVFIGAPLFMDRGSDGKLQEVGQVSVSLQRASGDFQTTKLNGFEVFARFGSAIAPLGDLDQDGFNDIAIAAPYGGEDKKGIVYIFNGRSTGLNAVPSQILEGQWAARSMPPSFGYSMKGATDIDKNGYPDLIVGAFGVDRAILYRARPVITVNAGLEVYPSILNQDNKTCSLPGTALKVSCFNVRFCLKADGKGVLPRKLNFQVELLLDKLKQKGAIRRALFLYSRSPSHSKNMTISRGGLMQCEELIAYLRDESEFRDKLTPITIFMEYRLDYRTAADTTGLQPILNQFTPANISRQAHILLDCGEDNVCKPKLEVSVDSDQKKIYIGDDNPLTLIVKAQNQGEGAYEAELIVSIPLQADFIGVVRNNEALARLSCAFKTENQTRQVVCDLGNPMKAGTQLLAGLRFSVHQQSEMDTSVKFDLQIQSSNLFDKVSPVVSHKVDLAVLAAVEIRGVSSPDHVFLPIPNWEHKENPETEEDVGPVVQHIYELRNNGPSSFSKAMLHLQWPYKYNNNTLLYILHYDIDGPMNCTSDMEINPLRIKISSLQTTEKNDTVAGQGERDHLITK
# T1 sequence (P06756 891-1048 limits assumed): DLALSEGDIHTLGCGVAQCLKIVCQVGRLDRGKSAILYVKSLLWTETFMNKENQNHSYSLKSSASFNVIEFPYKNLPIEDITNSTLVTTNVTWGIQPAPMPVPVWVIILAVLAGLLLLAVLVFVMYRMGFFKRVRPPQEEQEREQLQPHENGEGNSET
# T1 sequence (P18564 22-788 limits assumed): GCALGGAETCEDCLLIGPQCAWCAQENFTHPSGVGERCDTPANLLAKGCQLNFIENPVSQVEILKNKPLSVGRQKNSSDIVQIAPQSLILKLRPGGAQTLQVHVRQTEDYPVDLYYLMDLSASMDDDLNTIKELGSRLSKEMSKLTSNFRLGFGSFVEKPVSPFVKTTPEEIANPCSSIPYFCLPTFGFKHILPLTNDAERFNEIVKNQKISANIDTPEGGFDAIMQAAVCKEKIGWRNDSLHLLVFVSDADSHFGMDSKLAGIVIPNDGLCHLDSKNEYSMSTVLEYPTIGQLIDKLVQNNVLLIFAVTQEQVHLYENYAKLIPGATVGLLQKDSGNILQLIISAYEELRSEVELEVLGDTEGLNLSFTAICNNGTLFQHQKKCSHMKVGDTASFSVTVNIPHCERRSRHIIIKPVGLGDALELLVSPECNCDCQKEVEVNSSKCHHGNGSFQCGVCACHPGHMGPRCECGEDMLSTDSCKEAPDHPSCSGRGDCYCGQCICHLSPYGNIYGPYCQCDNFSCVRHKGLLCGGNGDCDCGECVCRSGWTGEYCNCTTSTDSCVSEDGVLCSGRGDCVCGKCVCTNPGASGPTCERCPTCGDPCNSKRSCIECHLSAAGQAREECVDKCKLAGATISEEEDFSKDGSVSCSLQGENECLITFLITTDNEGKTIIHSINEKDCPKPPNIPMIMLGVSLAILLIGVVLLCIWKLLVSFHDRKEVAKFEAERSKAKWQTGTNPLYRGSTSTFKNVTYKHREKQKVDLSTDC
# Integrin alpha-V/beta-8, sequence (P06756 31-889 limits assumed): as the sequence (P06756 31-889 limits assumed) above
# Integrin alpha-V/beta-8, sequence (P06756 891-1048 limits assumed): as the sequence (P06756 891-1048 limits assumed) above
# Integrin alpha-V/beta-8, sequence (P26012 43-769 limits assumed): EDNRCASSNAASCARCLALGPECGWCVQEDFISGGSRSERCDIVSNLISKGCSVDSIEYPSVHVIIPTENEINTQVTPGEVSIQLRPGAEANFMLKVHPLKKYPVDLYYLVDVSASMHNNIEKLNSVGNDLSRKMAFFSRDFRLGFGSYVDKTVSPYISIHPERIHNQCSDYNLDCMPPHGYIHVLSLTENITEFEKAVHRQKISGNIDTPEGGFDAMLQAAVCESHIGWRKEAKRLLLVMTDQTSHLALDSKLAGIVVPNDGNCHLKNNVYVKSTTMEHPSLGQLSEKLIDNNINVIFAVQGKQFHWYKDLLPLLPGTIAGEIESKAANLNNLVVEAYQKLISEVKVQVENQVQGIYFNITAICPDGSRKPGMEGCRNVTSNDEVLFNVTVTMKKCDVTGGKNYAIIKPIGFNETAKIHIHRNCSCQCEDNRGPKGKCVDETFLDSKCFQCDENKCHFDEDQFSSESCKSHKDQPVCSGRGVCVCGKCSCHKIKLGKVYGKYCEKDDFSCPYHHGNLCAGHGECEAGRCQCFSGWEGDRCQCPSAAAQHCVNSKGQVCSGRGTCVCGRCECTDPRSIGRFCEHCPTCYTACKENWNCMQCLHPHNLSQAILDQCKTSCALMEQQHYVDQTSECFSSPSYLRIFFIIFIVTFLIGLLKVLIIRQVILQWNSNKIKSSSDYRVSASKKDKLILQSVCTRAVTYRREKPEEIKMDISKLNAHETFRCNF
# Integrin alpha-V/beta-1, sequence (P05556 21-798 limits assumed): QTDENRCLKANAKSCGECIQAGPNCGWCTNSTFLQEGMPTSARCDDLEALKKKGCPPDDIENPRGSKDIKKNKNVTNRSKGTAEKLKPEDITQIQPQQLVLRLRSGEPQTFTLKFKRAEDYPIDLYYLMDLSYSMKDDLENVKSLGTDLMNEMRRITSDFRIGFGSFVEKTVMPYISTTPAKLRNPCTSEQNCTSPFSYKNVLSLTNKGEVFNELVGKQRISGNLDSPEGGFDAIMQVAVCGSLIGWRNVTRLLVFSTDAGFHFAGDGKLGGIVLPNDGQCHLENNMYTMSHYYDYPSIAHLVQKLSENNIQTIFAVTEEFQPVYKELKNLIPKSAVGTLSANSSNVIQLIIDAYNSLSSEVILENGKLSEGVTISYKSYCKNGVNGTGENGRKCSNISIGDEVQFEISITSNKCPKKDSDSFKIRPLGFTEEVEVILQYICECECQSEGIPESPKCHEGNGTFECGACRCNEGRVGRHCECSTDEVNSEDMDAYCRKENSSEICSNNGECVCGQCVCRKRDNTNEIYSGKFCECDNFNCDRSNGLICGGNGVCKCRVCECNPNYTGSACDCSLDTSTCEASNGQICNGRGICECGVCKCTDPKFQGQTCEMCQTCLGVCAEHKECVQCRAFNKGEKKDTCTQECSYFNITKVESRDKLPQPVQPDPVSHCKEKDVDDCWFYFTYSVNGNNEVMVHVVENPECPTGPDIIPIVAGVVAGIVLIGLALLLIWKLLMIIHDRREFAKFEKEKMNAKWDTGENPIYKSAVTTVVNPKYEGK
# Integrin alpha-V/beta-1, sequence (P06756 31-889 limits assumed): as the sequence (P06756 31-889 limits assumed) above
# Integrin alpha-V/beta-1, sequence (P06756 891-1048 limits assumed): as the sequence (P06756 891-1048 limits assumed) above
SMILES,IC50 [1] [nM],IC50 [2] [nM],IC50 [3] [nM],logD [4],IC50 [5] [nM],clearance [6] [mL/min/kg],Vd [7] [L/kg],half-life [8] [h],bioavailability [9] [%],Ratio IC50 [10],Ratio IC50 [11]
O=C(O)CN1CCC(C(=O)NCCCc2ccc3c(n2)NCCC3)CC1,1500,650,370,-0.5,–,–,–,–,–,–,–
O=C(O)[C@H](c1cc(F)ccc1C1CCOCC1)N1CC[C@@H](OCCCCc2ccc3c(n2)NCCC3)C1,7.8,120,100,1.3,128,–,–,–,–,–,–
O=C(O)[C@H](c1cccc(C2CC2)c1)N1CC[C@@H](OCCCCc2ccc3c(n2)NCCC3)C1,13,1100,180,1.7,–,–,–,–,–,–,–
O=C(O)[C@H](c1cc(F)ccc1[C@H]1CCOC1)N1CC[C@@H](OCCCCc2ccc3c(n2)NCCC3)C1,2.8,110,190,1.1,90,–,–,–,–,–,–
O=C(O)[C@H](c1cc(F)ccc1[C@@H]1CCOC1)N1CC[C@@H](OCCCCc2ccc3c(n2)NCCC3)C1,4.1,170,83,1,–,–,–,–,–,–,–
O=C(O)[C@H](c1ccccc1C1CC1)N1CC[C@@H](OCCCCCc2ccc3c(n2)NCCC3)C1,4.4,94,17,1.8,–,–,–,–,–,–,–
O=C(O)[C@H](c1cc(F)ccc1[C@@H]1CCCO1)N1CC[C@@H](OCCCCc2ccc3c(n2)NCCC3)C1,1.9,92,134,1.5,21,13,1.2,1.5,41,> 50,> 50
O=C(O)[C@H](c1ccc(C2CC2)cc1)N1CC[C@@H](OCCCCc2ccc3c(n2)NCCC3)C1,12,1600,300,1.7,–,–,–,–,–,–,–
O=C(O)[C@H](c1ccccc1C1CC1)N1CC[C@@H](Oc2ccc(Cc3ccc4c(n3)NCCC4)cc2)C1,0.7,27,7.7,2.4,–,–,–,–,–,–,–
O=C(O)[C@H](c1cc(F)ccc1C1CC1)N1CC[C@@H](OCCCCc2ccc3c(n2)NCCC3)C1,4,92,38,1.7,–,–,–,–,–,–,–
O=C(NCCCc1ccc2c(n1)NCCC2)[C@@H]1CCN([C@@H](C(=O)O)c2ccccc2)C1,93,9500,130,–,–,–,–,–,–,–,–
O=C(O)[C@H](c1ccccc1C1CC1)N1C[C@@H](F)[C@@H](OCCCCc2ccc3c(n2)NCCC3)C1,8.5,130,140,1.4,–,–,–,–,–,–,–
CC1(C)CC[C@@H](c2ccc(F)cc2[C@@H](C(=O)O)N2CC[C@@H](OCCCCc3ccc4c(n3)NCCC4)C2)OC1,0.5,690,140,2.6,41,30,2.4,1.2,25,–,–
CC1(C)CC[C@@H](c2ccccc2[C@@H](C(=O)O)N2CC[C@@H](OCCCCc3ccc4c(n3)NCCC4)C2)OC1,0.8,830,430,1.5,35,50,2.6,1.2,–,1100,560
CC1(C)CCCC(c2ccccc2[C@@H](C(=O)O)N2CC[C@@H](OCCCCc3ccc4c(n3)NCCC4)C2)O1 (some centres not stated),4.6,72,150,2.1,–,–,–,–,–,–,–
O=C(NCCCc1ccc2c(n1)NCCC2)C1CCN([C@@H](C(=O)O)c2ccccc2)CC1,16000,30000,–,–,–,–,–,–,–,–,–
O=C(O)[C@H](c1cc(F)ccc1[C@H]1CCCCO1)N1CC[C@@H](OCCCCc2ccc3c(n2)NCCC3)C1,8,130,130,1.7,–,–,–,–,–,–,–
O=C(O)[C@H](c1ccccc1)N1CC[C@@H](OCCCCc2ccc3c(n2)NCCC3)C1,80,3900,1100,0.7,–,–,–,–,–,–,–
O=C(NCCCc1ccc2c(n1)NCCC2)C1CCN([C@H](C(=O)O)c2ccccc2)CC1,4100,14000,–,0.2,–,–,–,–,–,–,–
O=C(NCCCc1ccc2c(n1)NCCC2)[C@@H]1CCN([C@H](C(=O)O)c2ccccc2)C1,37,1900,78,0.4,–,–,–,–,–,> 50,–
O=C(O)[C@H](c1ccccc1C1CCCOC1)N1CC[C@@H](OCCCCc2ccc3c(n2)NCCC3)C1 (some centres not stated),25,300,180,1.2,–,–,–,–,–,–,–
O=C(O)[C@H](c1ccccc1C1CC1)N1CC[C@@H](OCCCc2ccc3c(n2)NCCC3)C1,8.6,250,140,1.2,–,–,–,–,–,–,–
O=C(O)[C@H](c1ccccc1C1CC1)N1CC[C@@H](n2cc(CCc3ccc4c(n3)NCCC4)cn2)C1,33,56,100,1.6,–,–,–,–,–,–,–
CC1(C)CCO[C@H](c2ccccc2[C@@H](C(=O)O)N2CC[C@@H](OCCCCc3ccc4c(n3)NCCC4)C2)C1,1.6,570,410,2.3,213,–,–,–,–,–,–
O=C(O)[C@H](c1cc(F)ccc1[C@@H]1CCCCO1)N1CC[C@@H](OCCCCc2ccc3c(n2)NCCC3)C1,1.6,87,74,–,16,29,2.7,1.5,38,> 50,> 50
O=C(O)[C@H](c1ccccc1C1CC1)N1CC[C@@H](OCCCCc2ccc3c(n2)NCCC3)C1,4.6,96,55,1.4,–,–,–,–,–,–,–
O=C(O)CN1CC[C@H](C(=O)NCCCc2ccc3c(n2)NCCC3)C1,4300,1600,–,–,–,–,–,–,–,–,–
O=C(O)[C@H](c1cc(F)ccc1[C@H]1CCCO1)N1CC[C@@H](OCCCCc2ccc3c(n2)NCCC3)C1,12,193,155,1.4,–,–,–,–,–,–,–
O=C(O)CN1CC[C@@H](C(=O)NCCCc2ccc3c(n2)NCCC3)C1,790,4000,–,-0.6,–,–,–,–,–,–,–
